In paper PMC6901109 (Bioorganic & medicinal chemistry letters, 2019):

Assays:
Cryptococcus spp. = test: Antifungal activity against Cryptococcus spp.; type: cell-based
HLM half-life = type: in vitro ADME; conditions: human, liver microsomes
PigW = target: T1, PigW (Homo sapiens, UniProt Q7Z7B1); test: PigW assay; type: biochemical
T1 sequence (Q7Z7B1 1-504): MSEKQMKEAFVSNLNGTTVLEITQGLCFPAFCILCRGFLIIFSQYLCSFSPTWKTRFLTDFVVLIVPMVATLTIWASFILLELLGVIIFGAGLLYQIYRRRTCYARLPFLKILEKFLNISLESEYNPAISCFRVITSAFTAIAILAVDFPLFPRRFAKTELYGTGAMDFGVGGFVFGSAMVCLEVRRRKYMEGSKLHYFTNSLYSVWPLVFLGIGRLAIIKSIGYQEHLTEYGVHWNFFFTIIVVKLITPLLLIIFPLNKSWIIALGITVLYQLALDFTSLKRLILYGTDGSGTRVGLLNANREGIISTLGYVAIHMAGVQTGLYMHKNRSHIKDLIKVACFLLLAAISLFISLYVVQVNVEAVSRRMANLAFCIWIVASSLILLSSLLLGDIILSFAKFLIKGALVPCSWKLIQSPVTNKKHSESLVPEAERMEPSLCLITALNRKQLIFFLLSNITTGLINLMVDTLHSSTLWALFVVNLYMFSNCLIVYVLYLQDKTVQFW

HepG2 = HepG2 viability; type: cell-based; conditions: at a concentration of 3 μM

With Cc1occc1COc1ccc(Cc2cc(-c3cccnc3N)on2)cn1 [Compound 13k] the “fold weaker antifungal activity compared to the unsubstituted analog 13j” value (Cryptococcus spp.; ortho-methyl group, vs 13j) was “about 100 fold”.
For Nc1ncccc1-c1cc(Cc2ccc(OCc3cccc(Cl)c3)nc2)no1 [Compound 13l], the half-life (HLM half-life) was 68.2 min and the “activity against the human homolog PigW (in words)” value (PigW) was “significant activity”.
With Nc1ncccc1-c1cc(Cc2ccc(Oc3ccccn3)cc2)no1 [Compound 12b] the “HepG2 cytotoxicity (in words)” value (HepG2) was “significant liability”.
Nc1ncccc1-c1cc(Cc2ccc(Cc3ccco3)cc2)no1 [Compound 8d] gave a half-life (HLM half-life) of roughly 3 min.
For Cc1nccc(NCc2ccc(Cc3cc(-c4cccnc4N)on3)cc2)n1 [Compound 11b], the “antifungal activity (in words)” value (Cryptococcus spp.) was “inactive”.
Nc1ncccc1-c1cc(Cc2ccc(Cc3ccc(F)o3)cc2)no1 [Compound 8e] showed a half-life (HLM half-life) of 14 min.
In the case of Nc1ncccc1-c1cc(Cc2ccc(CNCc3ccn[nH]3)cc2)no1 [Compound 10b], the “antifungal activity (in words)” value (Cryptococcus spp.) is reported as “inactive”.
